Experimental data from US20050090563A1, “Method and compositions for inhibiting the scent tracking ability of mosquitoes and biting midges” (Bedoukian Research, Inc., priority 2003, published 2005).

Test system: Aedes aegypti mosquitoes
Experiment: Field test of mosquito landings on human subjects near candles containing the test substance
Type: in vivo
Conditions: for Four Day Totals of Mosquito Landings On Subjects: field test, Connecticut, August 2003, candles at four corners of 7 ft x 7 ft squares, 18 inches above ground, four human subjects, landings counted on arms, legs and torso, control without substance 152
Experimental: In a test of the inhibiting ability of the (S)-(+)-linalool chiral isomer compound of this invention, the following field test was conducted. The study was conducted in August 2003 on a site in Connecticut. Candles containing the test compound or no compound were placed 18 inches above the ground at the four corners of 7 ft×7 ft squares, with the squares being placed 50 ft apart. Four subjects (persons) were employed in the tests. On a given day, the subjects were rotated through all four positions of a square. Each day, treatments rotated to the next position, so that each treatment was tested at each site. The landing of mosquitoes on the subject were counted. Landing counts were taken from the arms, legs and torso of a test subject.

| SMILES | Four Day Totals of Mosquito Landings On Subjects | Mosquito landings relative to linalool (same candle field test, four day totals) |
| --- | --- | --- |
| C=CC(C)(O)CCC=C(C)C (stereo not drawn) [Linalool: 35% (+), 65% (−), Linalool, reference compound] | 82 |  |
| C=CC(C)(O)CCC=C(C)C (stereo not drawn) [Linalool: 85% (+), 15% (−), Linalool] | 42 | 73.5% |
